Read-outs that look alike come from different tables or passages of the source.
Columns and labels:
[1] = system: patients with metastatic, chemo-naive, hormone-refractory prostate cancer (HRPC); assay: Dose escalation: dose-limiting toxicities and maximum tolerated dose; assay type: in vivo
Procedure: On days 2–21 (21-day cycle), patients took an oral dose of BIBF 1120 twice daily. Patients were instructed to swallow BIBF 1120 with water at the same time every day to ensure a dose interval of ∼12 h. On day 2 of treatment cycles (TCs) 1 and 2, patients only took the morning dose of BIBF 1120, omitting the evening dose to allow PK evaluation. All patients were premedicated with oral corticosteroids (dexamethasone 8 mg per os or methylprednisolone 32 mg per os, at 12 h and 1 h before docetaxel infusion) and subsequently took 5 mg prednisone oral BID throughout the trial. On day 1 of each TC, patients received an IV infusion of 75 mg m^−2 docetaxel administered over 1 h.
Based on prior clinical experience, the starting dose of BIBF 1120 in TC 1 was 100 mg BID; doses were escalated in 50 mg increments until the occurrence of a dose-limiting toxicity (DLT). Recognised DLTs included the occurrence of non-haematological related toxicity grade ⩾3 with the exception of alopecia, nail modifications, acute nausea or vomiting and isolated γ-glutamyl transpeptidase elevations. Alternatively, the occurrence of uncomplicated grade 4 neutropenia for >7 days, neutropenia grade ⩾3 associated with fever ⩾38.5 °C, or grade 4 thrombopenia or grade 3 thrombopenia associated with bleeding in […], was defined as a DLT. […]

[2] = system: metastatic hormone-refractory prostate cancer (HRPC); assay: Evaluation of response (PSA decline, RECIST); assay type: in vivo, human
Procedure: All patients who received at least one dose of BIBF 1120 or docetaxel were assessed during the safety analysis. Intensity of AEs was graded according to Common Terminology Criteria for Adverse Events (CTCAE) version 3.0. Objective response was defined as a PSA decline ⩾50% from the baseline value over two consecutive courses and/or tumour response according to RECIST criteria ([Therasse et al, 2000]).

VEGFR = system: VEGFR; set-up: method as in Hilberg et al, 2008; settings: after a 1-h exposure; ref Hilberg et al, 2008; cited from earlier work
[3] = system: advanced lung cancer patients; set-up: method as in Reck et al, 2011; settings: phase II, ref Reck et al, 2011, cited from earlier work

## COC(=O)c1ccc2c(c1)NC(=O)/C2=C(\Nc1ccc(N(C)C(=O)CN2CCN(C)CC2)cc1)c1ccccc1 [BIBF 1120]
[1]; continuous daily oral BIBF 1120 + docetaxel 75 mg m^−2 every 3 weeks + prednisone 5 mg BID
  Maximum tolerated dose (MTD): 250 mg BID
[1]; in vivo
  DLTs at dose levels <250 mg BID: no patients experienced DLTs
[2]; 250 mg BID + docetaxel/prednisone
  Estimated progression-free survival rate at 24 weeks: 56%
[2]; 19 assessable patients, BIBF 1120 + docetaxel/prednisone
  Patients with ⩾50% reduction in PSA levels from baseline (PSA response): 68.4%
[2]; 19 evaluable patients, BIBF 1120 100–250 mg BID + docetaxel/prednisone
  Patients with disease response (PSA and/or RECIST): 73.7%
[2]; BIBF 1120 + docetaxel/prednisone
  Patients with complete biological response with normalisation of PSA: 33.3%
VEGFR
  Duration of block of VEGFR activation: > 32 h
[3]; 250 mg BID monotherapy
  Frequency of CTCAE grade 3/4 liver enzyme elevations: ~20%
[3]; 150-mg BID monotherapy
  Frequency of CTCAE grade 3/4 liver enzyme elevations: none

Reference: publication PMC3242598, “Phase I study of BIBF 1120 with docetaxel and prednisone in metastatic chemo-naive hormone-refractory prostate cancer patients” (British Journal of Cancer, 2011)
